Measurements taken from patent publication EP1258527A1, “Membrane-associated shingomyelinase derived from bovine brain, isolation method therfor and anti-sphingomyelinase monocional antibody” (SK Corporation, priority 2001, dated 2002).
Entries after “also recorded” stand apart in the source; their conditions may differ. Read-outs that look alike come from different tables or passages of the source. Values belong to the compound of their own block, whether it stands above or below them.

Tests used:
[1] = tested on: partially purified N-mSMase; details: partially purified rat brain N-mSMase (Liu et al.); cited from earlier work
N-mSMase ε = assay: N-mSMase activity assay: influence of cations, reducing agents and surfactants on enzyme activity; format: biochemical, bovine; details: for influence of reducing agents on N-mSMase ε activity: 0.5-10 mM, relative to control without reducing agent; for influence of agents similar to glutathione on N-mSMase ε activity: 1, 3, 5 or 10 mM; for inhibition of activity at 10 mM: glutathione concentration of 10 mM
Protocol: (§1) After being dried with a nitrogen stream, [N-methyl-^14 C]sphingomyelin (choline residue labeled with ^14C) was suspended in ethanol. 10 µl of a sample was mixed with 100 µl of a reaction solution (10 mM MgSO4, 50 µM [N-methyl-^14 C]sphingomyelin (c.a. 60,000 cpm), 2 mM sodium deoxycholate, 100 mM Tris-HCl (pH 7.0)) and incubated at 37 °C for 30 min. Addition of 320 µl of a mixture of chloroform/methanol (1:1 volume ratio) and 30 µl of 2N hydrochloride stopped the reaction. After vortexing and centrifuging the resulting mixture at 10,000xg, 200 µl of the aqueous layer was mixed with 2.5 ml of a scintillation cocktail, such as that manufactured by Packard Instrument Co., U.S.A., identified as "Insta gel-XF", followed by measuring the radioactivity with the aid of a Packard Tricarb liquid β-scintillation counter.
(§2) Separately, the same Lineweaver-Burk analysis was carried out, but in the presence of 0.4, 1.0 and 2.0 mM sodium deoxycholate.
In order to examine the dependency of N-mSMase ε activity on Mg^2+, Fraction B obtained in Step 6 of Example 1 was desalted by being applied to a PD-10 column (Sephadex G-25, Pharmacia Biotechnology Co., Sweden). For use, the column was equilibrated twice with distilled water, in advance. The desalted protein fraction (corresponding to protein 10 ng) was measured for N-mSMase ε activity in the presence of 1, 5, 10 and 25 mM of MgCl2 in the manner described in Experimental Example 1.
An examination was made of the influence of other cations, such as Ca^2+, Fe^3+, Fe^2+, Zn^2+, Cu^2+ and […] on the activity of N-mSMase ε. To a solution containing the desalted protein fraction (corresponding to protein 10 ng) obtained in C and 5 mM MgCl2, CaCl2, FeCl3, FeCl2, ZnCl2 or CuCl2 was added to yield a final concentration of 0.01, 0.02, 0.05, 0.1, 0.25 or 0.5 mM, followed by the measurement of N-mSMase ε activity in accordance with the procedure of Experimental Example 1.
After the addition of 10 µl of [N-methyl-^14C]sphingomyelin, the N-mSMase activity was measured according to the procedure of Experimental Example 1. For comparison, a Tris-HCl buffer containing no reducing agents was used as a control. The N-mSMase ε activity influenced by the reducing agents was expressed as a percentage relative to the control.
After being treated with 1, 3, 5 or 10 mM of GSSG, cystein, cystein-glycine or γ-glutaric acid-cystein, the activity of N-mSMase ε was measured in the same manner.
Sodium deoxycholate and Triton X-100 were selected as surfactants to be tested. The protein fraction obtained in C (corresponding to 10 ng of protein) was measured for N-mSMase ε activity in reaction solutions containing 0.5, 1, 2 and 5 mM of sodium deoxycholate, respectively, in accordance with the procedure of Experimental Example 1. In the case of Triton X-100, it was prepared at concentrations of 0.05, 0.01, 0.5 and 0.1 %.

[2] = tested on: N-mSMase ε, membrane-associated, Mg^2+-dependent, neutral pH optimum sphingomyelinase (60 kDa) from bovine brain; assay: Lineweaver-Burk kinetic analysis (N-mSMase activity assay); format: biochemical
Protocol: as §1
The N-mSMase ε prepared in Step 6 of Example 1 was subjected to Lineweaver-Burk analysis. In this regard, enzyme N-mSMase ε was used at amounts of 10 ng or less with the substrate sphingomyelin varying, in concentration, from 6.25 to 100 µM.
as §2

[3] = cation chloride added at 0.01-0.5 mM in the presence of 5 mM MgCl2, read-out: IC50 (inhibition of enzyme activity, hydrolysis of sphingomyelin)

Compound: OCCS [2-mercaptoethanol]
- influence of reducing agents on N-mSMase ε activity (N-mSMase ε): not inhibited; also recorded: neither dithiothreitol nor 2-mercaptoethanol has any influence

Compound: N[C@@H](CS)C(=O)O [cystein]
- influence of agents similar to glutathione on N-mSMase ε activity (N-mSMase ε): inhibited; also recorded: reduction in the activity

Compound: N[C@@H](CCC(=O)N[C@@H](CS)C(=O)O)C(=O)O [γ-glutaric acid-cystein]
- influence of agents similar to glutathione on N-mSMase ε activity (N-mSMase ε): inhibited; also recorded: reduction in the activity

Compound: oxidized glutathione [GSSG]
- influence of agents similar to glutathione on N-mSMase ε activity (N-mSMase ε): inhibited; also recorded: reduction in the activity

Compound: phosphatidylserine
- effect on activity of partially purified N-mSMase [1]: promoted

Compound: sodium deoxycholate
- effect on Km value of N-mSMase ε (N-mSMase ε; Lineweaver-Burk analysis in the presence of 0.4, 1.0 and 2.0 mM sodium deoxycholate): could not change

More lines, main results first:

- influence of reducing agents on N-mSMase ε activity (N-mSMase ε): not inhibited
Compound: O[C@H](CS)[C@H](O)CS (racemic) [DTT, dithiothreitol]
- effect on activity of partially purified N-mSMase [1]: promoted
- influence of reducing agents on N-mSMase ε activity (N-mSMase ε; listed as dithiothreitol): neither dithiothreitol nor 2-mercaptoethanol has any influence

- influence on the activity of N-mSMase ε (N-mSMase ε; concentration of 0.5 mM or less, 5 mM MgCl2): no influence
Compound: [Ca+2].[Cl-].[Cl-] [Ca^2+, CaCl2]

- IC50 (N-mSMase ε; [3]): 28 µM
Compound: [Cl][Cu][Cl] [Cu^2+, CuCl2]

- dependency of N-mSMase ε activity on Mg^2+ (N-mSMase ε; 1, 5, 10 and 25 mM MgCl2, desalted fraction): Mg^2+-concentration dependent
Compound: [Cl-].[Cl-].[Mg+2] [Mg^2+, MgCl2]

- IC50 (N-mSMase ε; [3]): 32 µM
Compound: [Cl-].[Cl-].[Zn+2] [Zn^2+, ZnCl2]

- IC50 (N-mSMase ε; glutathione 0.5-10 mM, preincubation 37 °C 10 min, read-out: IC50 (inhibition of sphingomyelinase activity)): 8000 µM
- inhibition of activity at 10 mM (N-mSMase ε): completely inhibited
- inhibition of activity at 10 mM (N-mSMase ε; listed as Glutathione): fully inhibited
- change of activity with concentration up to 3 mM (N-mSMase ε; glutathione up to 3 mM): increases
Compound: N[C@@H](CCC(=O)N[C@@H](CS)C(=O)NCC(=O)O)C(=O)O [glutathione]

- Km ([2]; substrate sphingomyelin 6.25 to 100 µM, enzyme 10 ng or less, absence of surfactants): 47 µM
- Km value in the presence of sodium deoxycholate ([2]; substrate sphingomyelin, 0.4, 1.0 and 2.0 mM sodium deoxycholate): could not change
Compound: sphingomyelin
